The test system of one test is Aspergillus fumigatus. As to the kind of experiment: In vitro antimycotic activity, serial dilution test (MIC). The format is cell-based. The following applies: 28° to 37° C., 96 hours. The protocol:
(§1) The in vitro tests were carried out in a serial dilution test using inocula of organisms with an average of 5×10^3 to 10^4 organisms/ml of substrate. The following nutrient medium were used
(§2) (a) for dermatophytes and mold fungi: Sabourand's milieu d'epreuve
(§3) The incubation temperature was 28° to 37° C., and the incubation time was 24 to 96 hours for yeasts and 96 hours for dermatophytes and mold fungi.

For another test, the system named is Torulopsis glabrata. Described as above. The format is cell-based. The note with it: Nakaseomyces glabratus, 28° to 37° C., 24 to 96 hours. Here is the method: (§4) The in vitro tests were carried out in a serial dilution test using inocula of organisms with an average of 5×10^3 to 10^4 organisms/ml of substrate. The following nutrient medium were used (b) for yeasts: meat extract/glucose broth. The incubation temperature was 28° to 37° C., and the incubation time was 24 to 96 hours for yeasts and 96 hours for dermatophytes and mold fungi.

Another test has as its system Trichophyton mentagr. The description is as above. The format is cell-based, Trichophyton mentagrophytes. The following applies: 28° to 37° C., 96 hours. Here is the method:
as §1, §2, §3

In another test the test system is Candida albicans. Described as above. The format is cell-based. The note with it: 28° to 37° C., 24 to 96 hours. The protocol:
as §4

The subject of test [1] is dermatophytes, mold fungi and yeasts. Kind of test: In vitro antimycotic activity, overall comparison with known compounds. The format is cell-based. The following applies: in vitro serial dilution test. The protocol: The in vitro tests were carried out in a serial dilution test using inocula of organisms with an average of 5×10^3 to 10^4 organisms/ml of substrate. The following nutrient medium were used (a) for dermatophytes and mold fungi: Sabourand's milieu d'epreuve (b) for yeasts: meat extract/glucose broth. The incubation temperature was 28° to 37° C., and the incubation time was 24 to 96 hours for yeasts and 96 hours for dermatophytes and mold fungi.

The test system of a further test is candida cells. As to the kind of experiment: In vivo antimycotic activity (oral) on candidosis of the mouse. More on the design: species or system mouse (SPF-CF1) infected with candida. The following applies: 10-100 mg/kg; for Action (class of survival on day 6 after infection): 1 hour before and 7 hours after infection; for surviving on day 6 after infection: good or very good actions, untreated controls about 5%. The protocol: Type SPF-CF1 mice were infected intravenously with 1-2×10^6 logarithmically growing candida cells which are suspended in physiological saline solution. The animals are each treated orally with 10-100 mg/kg of body weight of the products 1 hour before and 7 hours after the infection. Untreated animals died on days 3 to 6 after the infection. The survival rate on day 6 after the infection was about 5% for untreated control animals.

Another test deals with Microsporum canis. As to the kind of experiment: In vitro antimycotic activity, serial dilution test (MIC). The format is cell-based. The following applies: 28° to 37° C., 96 hours. The protocol: as §1, §2, §3

The values that follow come from patent publication US4910213A, “Antimycotic agents” (Bayer Aktiengesellschaft, priority 1984, dated 1990).

Each structure is given as a SMILES string. Converted amounts (≈) assume the structure as drawn.

One may read the MIC as the least concentration at which growth counts as inhibited. For the compound `OC(Cn1cncn1)(Cn1cncn1)c1cccc(Cl)c1` [(A), reference compound], the MIC in the test on Aspergillus fumigatus is over 64 µg/mL; in the test with Torulopsis glabrata, over 64 µg/mL; in the test with Trichophyton mentagr., 32 µg/mL (≈ 105 µM).

As for `OC(Cn1cncn1)(Cn1cncn1)c1ccc(Cl)cc1` [(B), reference compound], the MIC in the test on Aspergillus fumigatus was over 64 µg/mL; in the test with Candida albicans, 2 µg/mL (≈ 6.56 µM); with Torulopsis glabrata it was 64 µg/mL (≈ 210 µM); with Trichophyton mentagr. it was 16 µg/mL (≈ 52.5 µM).

For the compound `OC(Cn1cncn1)(Cn1cncn1)c1ccccc1` [(C), reference compound], the MIC against Aspergillus fumigatus was over 64 µg/mL; against Candida albicans, 64 µg/mL (≈ 237 µM); against Torulopsis glabrata it was over 64 µg/mL; with Trichophyton mentagr. it was 64 µg/mL (≈ 237 µM).

For the compound `OC(Cn1cncn1)(c1ccc(Cl)cc1)C1(n2cncn2)CC1` (stereo not shown) [Example I-1, 1-(4-chlorophenyl)-1-[1-(1,2,4-triazol-1-yl)cyclopropyl]-2-(1,2,4-triazol-1-yl)-1-ethanol], the “antimycotic action compared with compounds (A), (B) and (C)” value in test [1] was “better antimycotic action than compounds (A), (B) and (C)”. In the test with candida cells, the “Action (class of survival on day 6 after infection)” value is on record as “+++++ (very good action = 90% surviving on day 6 after infection)”. In the test on candida cells, the “surviving on day 6 after infection” value is over 60%. Also, the MIC in the test on Microsporum canis is 32 µg/mL (≈ 96.7 µM); with Aspergillus fumigatus it was 32 µg/mL (≈ 96.7 µM); against Candida albicans it was 8 µg/mL (≈ 24.2 µM); with Torulopsis glabrata, over 64 µg/mL; against Trichophyton mentagr., 2 µg/mL (≈ 6.05 µM).

Turning to `OC(Cn1cncn1)(c1ccc(F)cc1)C1(n2cncn2)CC1` (stereo not shown) [Example I-2], in the test on candida cells, the “Action (class of survival on day 6 after infection)” value was “+++++ (very good action = 90% surviving on day 6 after infection)” and the “surviving on day 6 after infection” value was over 60%.

For `OC(Cn1cncn1)(c1ccc(-c2ccccc2)cc1)C1(n2cncn2)CC1` (stereo not shown) [Example I-3], the “antimycotic action compared with compounds (A), (B) and (C)” value in test [1] is “better antimycotic action than compounds (A), (B) and (C)”. The “Action (class of survival on day 6 after infection)” value in the test on candida cells is given as “+++ (action = 60% surviving on day 6 after infection)”. The “surviving on day 6 after infection” value in the test with candida cells was over 60%. In addition, the MIC against Microsporum canis was 4 µg/mL (≈ 10.7 µM); against Aspergillus fumigatus, 8 µg/mL (≈ 21.5 µM); against Candida albicans, 2 µg/mL (≈ 5.37 µM); with Torulopsis glabrata it was 8 µg/mL (≈ 21.5 µM); in the test on Trichophyton mentagr., under 1 µg/mL.

As to `Cc1ccc(C(O)(Cn2cncn2)C2(n3cncn3)CC2)cc1` (stereo not shown) [Example I-5], in the test with candida cells, the “Action (class of survival on day 6 after infection)” value is recorded as “++++ (good action = 80% surviving on day 6 after infection)” and the “surviving on day 6 after infection” value is over 60%.

Consider `OC(Cn1cncn1)(c1ccccc1)C1(n2cncn2)CC1` (stereo not shown) [Example I-6], for which, in test [1], the “antimycotic action compared with compounds (A), (B) and (C)” value was “better antimycotic action than compounds (A), (B) and (C)”. In addition, in the test on candida cells, the “Action (class of survival on day 6 after infection)” value was “+++++ (very good action = 90% surviving on day 6 after infection)”. Besides, the “surviving on day 6 after infection” value in the test on candida cells is given as over 60%. Further, the MIC was 32 µg/mL (≈ 108 µM) with Microsporum canis; 32 µg/mL (≈ 108 µM) in the test with Aspergillus fumigatus; 8 µg/mL (≈ 27 µM) in the test on Candida albicans; over 64 µg/mL against Torulopsis glabrata; 4 µg/mL (≈ 13.5 µM) against Trichophyton mentagr..

`OC(Cn1cncn1)(c1ccc(Br)cc1)C1(n2cncn2)CC1` (stereo not shown) [Example I-7]: in test [1], the “antimycotic action compared with compounds (A), (B) and (C)” value is “better antimycotic action than compounds (A), (B) and (C)”. The “Action (class of survival on day 6 after infection)” value in the test on candida cells was “++++ (good action = 80% surviving on day 6 after infection)”. Further, the “surviving on day 6 after infection” value with candida cells is recorded as over 60%. Further, the MIC is 32 µg/mL (≈ 85.3 µM) in the test on Microsporum canis; 64 µg/mL (≈ 171 µM) against Aspergillus fumigatus; 4 µg/mL (≈ 10.7 µM) with Candida albicans; 32 µg/mL (≈ 85.3 µM) in the test on Torulopsis glabrata; under 1 µg/mL in the test with Trichophyton mentagr..

For the compound `OC(Cn1cncn1)(c1ccc(Cl)cc1)C1(n2ccnc2)CC1` (stereo not shown) [Example I-10], in the test with candida cells, the “Action (class of survival on day 6 after infection)” value is given as “+++ (action = 60% surviving on day 6 after infection)” and the “surviving on day 6 after infection” value was over 60%.
